Experimental data reported in US12257352B2, “Compositions and methods for delivery of biomacromolecule agents” (The Regents of the University of Michigan, priority 2016, dated 2025).
Peptide text beside a SMILES is read from it. * marks the point of attachment. FITC = O=C1OC2(c3ccc(O)cc3Oc3cc(O)ccc32)c2ccc(NC(=S)*)cc21

Test: Lymph node draining of antigen peptide and Cho-CpG (IVIS)
Assay type: in vivo, C57BL/6 mice
Conditions: 31 nmol FITC-tagged Ag subcutaneously at tail base, after 1 day
Procedure: Female C57BL/6 mice of age 6-8 weeks were purchased from Harlan Laboratories. […] 24 hours after injection, mice were euthanized by carbon dioxide inhalation and axillary lymph nodes and inguinal lymph nodes were harvested and imaged with IVIS optical imaging system (Caliper Lifesciences).
After 24 h, inguinal lymph nodes were harvested, and FITC or Cy5 fluorescence signal was measured with IVIS optical imaging system (Caliper Life Sciences).

Structure (SMILES): CC[C@H](C)[C@H](NC(=O)[C@H](CO)NC(=O)[C@H](CO)NC(=O)[C@H](CO)NC(=O)[C@@H](N)CS)C(=O)N[C@H](C(=O)N[C@@H](CC(N)=O)C(=O)N[C@@H](Cc1ccccc1)C(=O)N[C@@H](CCC(=O)O)C(=O)N[C@@H](CCCCNC(=S)Nc1ccc2c(c1)C(=O)OC21c2ccc(O)cc2Oc2cc(O)ccc21)C(=O)N[C@@H](CC(C)C)C(=O)O)[C@@H](C)CC [free CSS-SIINFEK(FITC)L] (H-CSSSIINFEK(FITC)L-OH)
- FITC signal in inguinal dLNs: minimal FITC signal in inguinal dLNs
